Measurements reported in patent US7326772B2, “Peptide for assaying hERG channel binding” (Penta Biotech, Inc., priority 2005, dated 2008).
pKi: −log10 of the molar value. Structures can show the parent of a compound that is named as a salt. Bridge positions count the residues as written; N and C are the ends. Peptide text beside a SMILES is read from it.

Experiments:
hERG channel = target: T1, hERG channel (Homo sapiens, UniProt Q12809); test: Ki (average)
T1 construct: host or cells: HEK-293 (hERG/HEK-293 cell line, clone 16), membrane preparation
T1 sequence (Q12809 whole entry, looked up): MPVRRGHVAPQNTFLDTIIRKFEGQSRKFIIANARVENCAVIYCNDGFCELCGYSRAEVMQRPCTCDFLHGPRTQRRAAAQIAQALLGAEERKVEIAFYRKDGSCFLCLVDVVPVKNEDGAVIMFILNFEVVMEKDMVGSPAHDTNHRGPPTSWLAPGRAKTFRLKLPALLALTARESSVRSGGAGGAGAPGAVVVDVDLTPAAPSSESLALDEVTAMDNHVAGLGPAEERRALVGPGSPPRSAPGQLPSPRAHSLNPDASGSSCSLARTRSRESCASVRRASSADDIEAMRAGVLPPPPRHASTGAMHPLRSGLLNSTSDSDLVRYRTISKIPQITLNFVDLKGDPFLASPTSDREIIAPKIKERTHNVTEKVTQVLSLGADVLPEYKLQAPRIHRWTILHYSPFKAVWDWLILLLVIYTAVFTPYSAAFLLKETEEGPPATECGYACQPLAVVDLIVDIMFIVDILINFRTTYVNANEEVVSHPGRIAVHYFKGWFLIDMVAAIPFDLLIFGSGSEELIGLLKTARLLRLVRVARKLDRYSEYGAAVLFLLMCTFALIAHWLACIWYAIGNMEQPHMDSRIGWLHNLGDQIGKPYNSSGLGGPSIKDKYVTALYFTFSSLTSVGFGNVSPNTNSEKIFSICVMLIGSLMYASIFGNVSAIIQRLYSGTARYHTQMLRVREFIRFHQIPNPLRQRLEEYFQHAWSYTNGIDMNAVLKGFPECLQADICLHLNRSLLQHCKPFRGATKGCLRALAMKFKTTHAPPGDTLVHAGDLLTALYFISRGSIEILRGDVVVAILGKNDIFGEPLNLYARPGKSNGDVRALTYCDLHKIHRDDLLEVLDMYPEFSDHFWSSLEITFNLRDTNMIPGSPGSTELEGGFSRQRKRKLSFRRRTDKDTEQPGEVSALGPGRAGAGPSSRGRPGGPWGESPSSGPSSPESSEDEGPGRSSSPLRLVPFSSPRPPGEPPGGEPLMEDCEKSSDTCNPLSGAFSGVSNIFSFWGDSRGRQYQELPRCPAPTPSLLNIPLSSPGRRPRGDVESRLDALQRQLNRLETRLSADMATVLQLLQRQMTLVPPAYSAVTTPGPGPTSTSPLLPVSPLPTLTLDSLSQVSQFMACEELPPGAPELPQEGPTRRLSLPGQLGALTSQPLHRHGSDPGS
Source text: Table printed on a drawing sheet, FIG. 4
Title: Ki of BeKm-1 Analogs in Two Independent FlashBlue Competition Assays.
Head of the field: Ki (average)
First copying reader's note: The table is panel A of FIG. 4; panel B is a plot and is left out.

[1] = target: T2, hERG K+ channel membranes (hERG/HEK-293 cell line, clone 16) (Homo sapiens, UniProt Q12809); test: homogeneous [125I]-BeKm-1 FlashBlue competition assay; assay type: binding; conditions: [125I]-BeKm-1 at 0.17 nM; acetate and TFA salts; one hour at room temperature
T2 construct: host or cells: HEK-293 (hERG/HEK-293 cell line, clone 16), membrane preparation
T2 sequence (Q12809 whole entry): as the sequence (Q12809 whole entry, looked up) above
Description: Acetate and TFA salts of (SeC)^7-BeKm-1 were tested in homogeneous [^125I]-BeKm-1 competition assays using FlashBlue GPCR beads and hERG K^+ channel membranes derived from Perkin Elmer's hERG/HEK-293 cell line (clone 16). […] Assays were run in buffer composed of 20 mM Hepes/Tris pH 7.2, 100 μM KCl, 0.5% BSA. 1.25 μg hERG K^+ channel membranes and 62.5 μg FlashBlue GPCR beads were added to each well of a 384-well white Optiplate. The total assay volume for each well was 40 μl. Plates were spun briefly after a one hour incubation at room temperature prior to signal detection with a TopCount apparatus.

Row | Compound | pKi (hERG channel) | affinity for the hERG channel (Ki, FIG. 4) [1]
1 | CC[C@H](C)[C@H](NC(=O)[C@H](CC(=O)O)NC(=O)[C@@H](NC(=O)[C@@H]1CCCN1C(=O)[C@@H](N)CCCNC(=N)N)[C@@H](C)O)C(=O)N[C@@H](CCCCN)C(=O)N[C@H]1CSSC[C@@H]2NC(=O)[C@H](CCCNC(=N)N)NC(=O)CNC(=O)[C@H](CC(N)=O)NC(=O)[C@H]([C@@H](C)O)NC(=O)[C@H](CCCCN)NC(=O)CNC(=O)[C@H](Cc3ccccc3)NC(=O)[C@H](CCCNC(=N)N)NC(=O)[C@H](CO)NC(=O)[C@H](CCCCN)NC(=O)[C@@H]3CSSC[C@@H](C(=O)N[C@@H](Cc4ccccc4)C(=O)O)NC(=O)[C@H](CC(=O)O)NC(=O)[C@H](CSSC[C@H](NC(=O)[C@H](CCC(N)=O)NC(=O)[C@H](Cc4ccc(O)cc4)NC(=O)[C@H](CO)NC(=O)[C@H](CCC(=O)O)NC(=O)[C@H](CO)NC1=O)C(=O)N[C@@H](Cc1ccccc1)C(=O)N1CCC[C@H]1C(=O)N[C@@H](C(C)C)C(=O)N3)NC(=O)[C@H](Cc1ccccc1)NC(=O)CNC(=O)[C@H](CC(N)=O)NC(=O)[C@H](C(C)C)NC2=O [BeKm-1 TFA Salt] (H-RPTDIKCSESYQCFPVCKSRFGKTNGRCVNGFCDCF-OH; disulfide 7-28, 13-33, 17-35 (inferred)) | 9.46 | –
2 | RPTDIKCSESYQCFPVCKSRFGKTNGRCVNGFCDCF [(SeC)^7-BeKm-1] | – | comparable to that of native BeKm-1
